Experimental data published in patent US20150144521A1, “STORAGE AIDS COMPRISING PLANT PROTECTANTS AND THEIR USE” (priority 2012, published 2015).

How the values were obtained:
[1] = 25° C.; cited from earlier work
potatoes = assay: sprouting on continued storage after large-scale treatment; type: in vivo
Experimental: Three to four repeated treatments of the product being stored are carried out in practice at regular time intervals.
A storage aid is therefore also suitable for sprouting suppression in seed potatoes for a limited period of time.
Therefore, seed potatoes must not, in principle, ever be treated directly with a growth regulator.

[2] = losses due to evaporation (FIG. 1); type: physicochemical; conditions: 30° C., after 30 days
From the text: FIG. 1 is a graph showing losses of isopropyl-N-(m-chlorophenyl) carbamate due to evaporation;

Molecule | vapor pressure [1] | sprouting ability after conventional intensive hot fumigation (FIG. 5) (potatoes) | losses due to evaporation [2]
trifluoromethyl-2-thienyl carbamate | 5.5 mbar | – | –
CCOC(=O)Nc1ccccn1 [ethyl-2-pyridyl carbamate] | 0.1 mbar | – | –
CC(C)OC(=O)Nc1ccccc1 [IPC, isopropyl-N-phenyl carbamate] | 0.144 mbar | – | –
CC(C)OC(=O)Nc1cccc(Cl)c1 [CIPC, isopropyl-N-(m-chlorophenyl)-carbamate] | – | completely suppressed | 0.03%
